The target of this assay is T1, StDHODH (dihydroorotate dehydrogenase) (Solanum tuberosum, UniProt M1BCR0, I273V/I299V/P120T/P359Q).
T1 construct: gene LOC102578881
T1 sequence (M1BCR0 70-460 P120T/I273V/I299V/P359Q): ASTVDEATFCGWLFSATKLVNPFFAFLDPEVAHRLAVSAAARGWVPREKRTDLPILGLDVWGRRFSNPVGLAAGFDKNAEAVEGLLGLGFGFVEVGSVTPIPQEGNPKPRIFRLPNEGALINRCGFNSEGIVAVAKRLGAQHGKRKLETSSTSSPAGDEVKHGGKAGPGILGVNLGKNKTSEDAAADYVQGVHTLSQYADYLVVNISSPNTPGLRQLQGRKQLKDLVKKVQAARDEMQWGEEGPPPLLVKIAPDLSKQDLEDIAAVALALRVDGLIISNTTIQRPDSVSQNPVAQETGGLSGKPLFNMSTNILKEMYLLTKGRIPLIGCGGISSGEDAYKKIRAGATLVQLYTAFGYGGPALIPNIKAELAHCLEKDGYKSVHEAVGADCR
Briefly: biochemical. The note with it: read-out: Activity % StDHODH.

Each structure is given as a SMILES string.

As to `COc1c(-c2ccccc2)ccc(NC(=O)C(C#N)=C(C)O)c1Cl` [compound 19, N-(3-chloro-2-methoxybiphenyl-4-yl)-2-cyano-3-hydroxybut-2-enamide], the activity at 500 µM turned out to be 0%.

Values taken from article PMC6611227 (Frontiers in Microbiology, 2019).
